Bridge positions count the residues as written; N and C are the ends. Square brackets hold non-standard residues; d marks the D form. Peptide text beside a SMILES is read from it. Hyp = O=C(O)[C@@H]1C[C@@H](O)CN1
How the values were obtained:
[1] = Physical stability of peptide analogues (Thioflavin T fibrillation); format: physicochemical; conditions: maximum ThT signal normalized between hAMY maximum and buffer background; 40° C., shaking, four days; pH 7 per table title
In short: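 Maximum ThT emission at 480 nm, after LOESS smoothing, is given as percent of the span from buffer background to hAMY. Conditions: 50 mM buffer at pH 4 or 7, 4 μM dye, 40 °C, repeated shaking, readings every 10 min for four days.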

[2] = target: hAM1 receptor (Homo sapiens, UniProt O60895+Q16602); test: cAMP assay for in vitro receptor activation, hAM1-R; format: cell-based; conditions: cAMP assay, hAM1 receptor; read-out: hAM1R EC50
Chain of hAM1 receptor (Q16602 23-461): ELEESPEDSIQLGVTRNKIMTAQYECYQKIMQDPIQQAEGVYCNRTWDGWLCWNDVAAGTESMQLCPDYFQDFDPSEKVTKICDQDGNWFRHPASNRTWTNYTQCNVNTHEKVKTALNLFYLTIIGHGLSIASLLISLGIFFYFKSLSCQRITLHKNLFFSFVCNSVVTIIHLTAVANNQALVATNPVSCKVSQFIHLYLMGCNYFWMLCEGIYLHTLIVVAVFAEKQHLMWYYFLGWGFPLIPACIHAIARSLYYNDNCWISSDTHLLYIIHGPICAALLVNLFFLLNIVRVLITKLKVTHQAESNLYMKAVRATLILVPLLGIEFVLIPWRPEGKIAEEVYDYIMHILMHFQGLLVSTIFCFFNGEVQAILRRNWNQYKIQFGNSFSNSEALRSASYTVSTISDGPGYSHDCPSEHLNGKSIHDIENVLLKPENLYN
Chain of hAM1 receptor (O60895 43-175 partner): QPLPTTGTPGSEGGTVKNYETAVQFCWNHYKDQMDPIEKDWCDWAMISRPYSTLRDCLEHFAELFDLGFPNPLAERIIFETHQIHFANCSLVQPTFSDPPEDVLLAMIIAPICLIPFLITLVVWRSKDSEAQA
In short: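 Read-out is intracellular cAMP as a measure of receptor activation. Cells stably overexpressing hAM1 were subcloned to a monoclonal line, then thawed and seeded at 8000 cells/well in DPBS with 0.05% casein and the phosphodiesterase inhibitor IBMX at 0.5 mM.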

[3] = target: T1, hAMY3 receptor (Homo sapiens, UniProt O60896+P30988); test: cAMP assay for in vitro receptor activation, hAMY3-R; format: cell-based; conditions: cAMP assay, hAMY3 receptor; read-out: hAMY3R EC50
T1 sequence (P30988 25-474): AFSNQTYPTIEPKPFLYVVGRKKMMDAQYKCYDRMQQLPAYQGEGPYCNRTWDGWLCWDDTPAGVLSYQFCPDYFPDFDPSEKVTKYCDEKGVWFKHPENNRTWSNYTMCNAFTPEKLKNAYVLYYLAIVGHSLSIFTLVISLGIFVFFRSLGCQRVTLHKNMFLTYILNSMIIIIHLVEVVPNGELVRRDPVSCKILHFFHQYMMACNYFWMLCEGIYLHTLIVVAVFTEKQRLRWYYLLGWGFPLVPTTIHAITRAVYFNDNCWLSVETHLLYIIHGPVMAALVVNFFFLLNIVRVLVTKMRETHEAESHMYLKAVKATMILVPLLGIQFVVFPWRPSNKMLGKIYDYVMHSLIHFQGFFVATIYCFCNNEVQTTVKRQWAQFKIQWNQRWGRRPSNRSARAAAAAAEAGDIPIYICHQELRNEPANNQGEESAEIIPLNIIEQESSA
T1 sequence (O60896 24-148 partner): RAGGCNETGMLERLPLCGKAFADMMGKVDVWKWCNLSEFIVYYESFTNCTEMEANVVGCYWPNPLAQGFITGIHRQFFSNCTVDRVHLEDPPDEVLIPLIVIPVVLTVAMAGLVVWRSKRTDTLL
In short: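 Monoclonal cell line stably overexpressing hAMY3 receptor, plated in DPBS with 0.05% casein and 0.5 mM IBMX, was stimulated with graded compound doses for 30 min at room temperature. cAMP accumulation was read by time-resolved FRET one hour after adding detection reagents.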

SMILES	Max ThT signal (%) [1] [%]	EC50 [2] [nM]	EC50 [3] [nM]
CC[C@H](C)[C@H](NC(=O)[C@H](CC(N)=O)NC(=O)[C@@H](NC(=O)[C@H](CCCNC(=N)N)NC(=O)[C@@H]1CCCN1C(=O)[C@H](C)NC(=O)[C@@H](NC(=O)[C@H](CC(N)=O)NC(=O)[C@H](CC(=O)O)NC(=O)[C@H](CCCCN)NC(=O)[C@H](CC(=O)O)NC(=O)[C@H](CCCCN)NC(=O)[C@H](CC(=O)O)NC(=O)[C@@H](NC(=O)[C@H](Cc1ccccc1)NC(=O)[C@H](CCC(N)=O)NC(=O)[C@H](Cc1ccc(O)cc1)NC(=O)[C@@H](NC(=O)[C@H](CCC(N)=O)NC(=O)[C@H](Cc1c[nH]cn1)NC(=O)[C@H](C)NC(=O)[C@H](CC(C)C)NC(=O)[C@H](Cc1c[nH]c2ccccc12)NC(=O)[C@H](CCC(N)=O)NC(=O)[C@@H](NC(=O)[C@@H](NC(=O)[C@@H]1CSSC[C@H](NC(=O)CN)C(=O)N[C@@H](CCCNC(=N)N)C(=O)N[C@@H]([C@@H](C)O)C(=O)NCC(=O)N[C@@H]([C@@H](C)O)C(=O)N1)[C@@H](C)O)C(C)C)[C@@H](C)CC)[C@@H](C)O)C(C)C)[C@@H](C)O)C(=O)NCC(=O)N1CCC[C@H]1C(=O)N[C@@H](CCC(N)=O)C(=O)NCC(=O)N1C[C@H](O)C[C@H]1C(N)=O [compound 341] (H-GCRTGTCTVQWLAHQIYQFTDKDKDNVAPRTNIGPQG[Hyp]-NH2; disulfide 2-7; N-terminus assumed)	20.500	> 5000	0.029
CC[C@H](C)[C@H](NC(=O)[C@H](CCC(N)=O)NC(=O)[C@H](Cc1c[nH]cn1)NC(=O)[C@H](C)NC(=O)[C@H](CC(C)C)NC(=O)[C@H](CCCNC(=N)N)NC(=O)[C@H](CCC(N)=O)NC(=O)[C@@H](NC(=O)[C@@H](NC(=O)[C@@H]1CSSC[C@H](NC(=O)[C@@H](N)CCCCN)C(=O)N[C@@H](CC(N)=O)C(=O)N[C@@H]([C@@H](C)O)C(=O)N[C@@H](C)C(=O)N[C@@H]([C@@H](C)O)C(=O)N1)[C@@H](C)O)C(C)C)C(=O)N[C@@H](C)C(=O)N[C@@H](CCC(N)=O)C(=O)N[C@@H](Cc1ccccc1)C(=O)N[C@H](C(=O)N[C@@H](CC(=O)O)C(=O)N[C@@H](CCCCN)C(=O)N[C@@H](CC(=O)O)C(=O)N[C@@H](CCCCN)C(=O)N[C@@H](CC(=O)O)C(=O)N[C@@H](CC(N)=O)C(=O)N[C@H](C(=O)N[C@@H](C)C(=O)N1CCC[C@H]1C(=O)N1CCC[C@H]1C(=O)N[C@H](C(=O)N[C@@H](CC(N)=O)C(=O)N[C@H](C(=O)NCC(=O)N[C@@H](CO)C(=O)N[C@@H](CC(N)=O)C(=O)NCC(=O)N1C[C@H](O)C[C@H]1C(N)=O)C(C)C)[C@@H](C)O)C(C)C)[C@@H](C)O [compound 14] (H-KCNTATCTVQRLAHQIAQFTDKDKDNVAPPTNVGSNG[Hyp]-NH2; disulfide 2-7; N-terminus assumed)	3.100	> 5000	0.007
CC[C@H](C)[C@H](NC(=O)[C@H](CCC(N)=O)NC(=O)[C@H](Cc1c[nH]cn1)NC(=O)[C@H](C)NC(=O)[C@H](CC(C)C)NC(=O)[C@H](CCCNC(=N)N)NC(=O)[C@H](CCC(N)=O)NC(=O)[C@@H](NC(=O)[C@@H](NC(=O)[C@@H]1CSSC[C@H](NC(=O)[C@@H](N)CCCCN)C(=O)N[C@@H](CC(N)=O)C(=O)N[C@@H]([C@@H](C)O)C(=O)N[C@@H](C)C(=O)N[C@@H]([C@@H](C)O)C(=O)N1)[C@@H](C)O)C(C)C)C(=O)N[C@@H](Cc1ccc(O)cc1)C(=O)N[C@@H](CCC(N)=O)C(=O)N[C@@H](Cc1ccccc1)C(=O)N[C@H](C(=O)N[C@@H](CC(=O)O)C(=O)N[C@@H](CCCCN)C(=O)N[C@@H](CC(=O)O)C(=O)N[C@@H](CCCCN)C(=O)N[C@@H](CC(=O)O)C(=O)N[C@@H](C)C(=O)N[C@H](C(=O)N[C@@H](C)C(=O)N1CCC[C@H]1C(=O)N1CCC[C@H]1C(=O)N[C@H](C(=O)N[C@@H](CC(N)=O)C(=O)N[C@H](C(=O)NCC(=O)N[C@@H](CO)C(=O)N[C@@H](CC(N)=O)C(=O)NCC(=O)N1C[C@H](O)C[C@H]1C(N)=O)C(C)C)[C@@H](C)O)C(C)C)[C@@H](C)O [compound 52] (H-KCNTATCTVQRLAHQIYQFTDKDKDAVAPPTNVGSNG[Hyp]-NH2; disulfide 2-7; N-terminus assumed)	7.600	> 5000	0.011

Further lines, results first:

Max ThT signal (%) [1] [%]	EC50 [2] [nM]	EC50 [3] [nM]	SMILES
10.150	> 5000	0.013	CC[C@H](C)[C@H](NC(=O)[C@H](CCC(N)=O)NC(=O)[C@H](Cc1c[nH]cn1)NC(=O)[C@H](C)NC(=O)[C@H](CC(C)C)NC(=O)[C@H](Cc1c[nH]c2ccccc12)NC(=O)[C@H](CCC(N)=O)NC(=O)[C@@H](NC(=O)[C@@H](NC(=O)[C@@H]1CSSC[C@H](NC(=O)[C@@H](N)CCCCN)C(=O)N[C@@H](CC(N)=O)C(=O)N[C@@H]([C@@H](C)O)C(=O)N[C@@H](C)C(=O)N[C@@H]([C@@H](C)O)C(=O)N1)[C@@H](C)O)C(C)C)C(=O)N[C@@H](Cc1ccc(O)cc1)C(=O)N[C@@H](CCC(N)=O)C(=O)N[C@@H](Cc1ccccc1)C(=O)N[C@H](C(=O)N[C@@H](CC(=O)O)C(=O)N[C@@H](CCCCN)C(=O)N[C@@H](CC(=O)O)C(=O)N[C@@H](CCCCN)C(=O)N[C@@H](CC(=O)O)C(=O)N[C@@H](CC(N)=O)C(=O)N[C@H](C(=O)N[C@@H](C)C(=O)N1CCC[C@H]1C(=O)N[C@@H](CCCNC(=N)N)C(=O)N[C@H](C(=O)N[C@@H](CCC(=O)O)C(=O)N[C@H](C(=O)NCC(=O)N[C@@H](CO)C(=O)N[C@@H](CC(N)=O)C(=O)NCC(=O)N[C@@H](Cc1ccc(O)cc1)C(N)=O)C(C)C)[C@@H](C)O)C(C)C)[C@@H](C)O [compound 334] (H-KCNTATCTVQWLAHQIYQFTDKDKDNVAPRTEVGSNGY-NH2; disulfide 2-7)
0.300	4250	0.235	CC[C@H](C)[C@H](NC(=O)[C@H](CCC(N)=O)NC(=O)[C@H](Cc1c[nH]cn1)NC(=O)[C@H](C)NC(=O)[C@H](CC(C)C)NC(=O)[C@H](CCCNC(=N)N)NC(=O)[C@H](CCC(N)=O)NC(=O)[C@@H](NC(=O)[C@@H](NC(=O)[C@@H]1CSSC[C@H](NC(=O)CN)C(=O)N[C@@H](CCCNC(=N)N)C(=O)N[C@@H]([C@@H](C)O)C(=O)NCC(=O)N[C@@H]([C@@H](C)O)C(=O)N1)[C@@H](C)O)C(C)C)C(=O)N[C@@H](Cc1ccc(O)cc1)C(=O)N[C@@H](CCC(N)=O)C(=O)N[C@@H](Cc1ccccc1)C(=O)N[C@H](C(=O)N[C@@H](CC(N)=O)C(=O)N[C@@H](CCCCN)C(=O)N[C@@H](CC(=O)O)C(=O)N[C@@H](CCCCN)C(=O)N[C@@H](CC(=O)O)C(=O)N[C@@H](CC(N)=O)C(=O)N[C@H](C(=O)N[C@@H](C)C(=O)N1CCC[C@H]1C(=O)N[C@@H](CCCNC(=N)N)C(=O)N[C@@H](CO)C(=O)N[C@@H](CCCCN)C(=O)N[C@H](C(=O)N[C@@H](CO)C(=O)N1CCC[C@H]1C(=O)N[C@@H](CCC(N)=O)C(=O)N[C@H](C(=O)N[C@@H](CCSC)C(N)=O)[C@@H](C)O)[C@@H](C)CC)C(C)C)[C@@H](C)O [compound 237] (H-GCRTGTCTVQRLAHQIYQFTNKDKDNVAPRSKISPQTM-NH2; disulfide 2-7)
